This note sets out measurements from patent US20220402862A1 (Intellia Therapeutics, Inc., priority 2019, published 2022).

A short description of data set [1]: Dynamic light scattering of LNPs: Z-average diameter, number average diameter, PDI. It counts as physicochemical. The settings on record: LNP. On the procedure: Dynamic Light Scattering (“DLS”) is used to characterize the polydispersity index (“PDI”) and size of the LNPs of the present disclosure. DLS measures the scattering of light that results from subjecting a sample to a light source. PDI, as determined from DLS measurements, represents the distribution of particle size (around the mean particle size) in a population, with a perfectly uniform population having a PDI of zero.
LNP compositions are analyzed for average particle size, polydispersity index (PDI), total RNA content, encapsulation efficiency of RNA, and zeta potential. LNP compositions may be further characterized by lipid analysis, AF4-MALS, NTA, and/or cryo-EM. Average particle size and polydispersity are measured by dynamic light scattering (DLS) using a Malvern Zetasizer DLS instrument or Wyatt NanoStar. LNP samples were diluted with PBS buffer prior to being measured by DLS. Z-average diameter which is an intensity-based measurement of average particle size is reported along with number average diameter and PDI. A Malvern Zetasizer or Wyatt NanoStar instrument is also used to measure the zeta potential of the LNP. Samples are diluted 1:17 (50 μL into 800 μL) in 0.1× PBS, pH 7.4 prior to measurement.

The next data set deals with Transthyretin (TTR). As to the kind of experiment: Serum TTR ELISA in mice after LNP dosing. It counts as in vivo, CD-1 female mice. Conditions: guide G282 experiments; for Serum TTR % TSS: mouse serum TTR relative to TSS control; for Serum TTR: mouse serum, ELISA. On the procedure:
CD-1 female mice ranging from 6-10 weeks of age were used in each study. Animals were weighed and grouped according to body weight for preparing dosing solutions based on group average weight. LNPs were dosed via the lateral tail vein in a volume of 0.2 mL per animal (approximately 10 mL per kilogram body weight). The animals were periodically observed for adverse effects for at least 24 hours post dose. For studies measuring in vivo editing in liver, CD-1 female mice were dosed at 0.1 mg/kg unless otherwise noted. Animals were euthanized at 6 or 7 days by ex sanguination via cardiac puncture under isoflurane anesthesia. Liver tissue was collected from each animal for DNA extraction and analysis. Blood was collected into serum separator tubes or into tubes containing buffered sodium citrate for plasma as described herein. Cohorts of mice were measured for editing by Next-Generation Sequencing (NGS).
Blood was collected and the serum was isolated as indicated. The total mouse TTR serum levels were determined using a Mouse Prealbumin (Transthyretin) ELISA Kit (Aviva Systems Biology, Cat. OKIA00111). Briefly, sera were serial diluted with kit sample diluent to a final dilution of 10,000-fold for 0.1 mg/kg dose and final dilutions of 10,000-fold and of 2,500-fold for 0.3 mg/kg. This diluted sample was then added to the ELISA plates and the assay was carried out according to the manufacturer's directions.

Data set [2] in a line: RNA encapsulation efficiency of LNPs (Ribogreen fluorescence assay). It is filed as physicochemical. The settings on record: LNP. On the procedure:
A fluorescence-based assay (Ribogreen®, ThermoFisher Scientific) is used to determine total RNA concentration and free RNA. Encapsulation efficiency is calculated as (Total RNA-Free RNA)/Total RNA. LNP samples are diluted appropriately with 1× TE buffer containing 0.2% Triton-X 100 to determine total RNA or 1× TE buffer to determine free RNA. Standard curves are prepared by utilizing the starting RNA solution used to make the compositions and diluted in 1× TE buffer +/− 0.2% Triton-X 100. Diluted RiboGreen® dye (according to the manufacturer's instructions) is then added to each of the standards and samples and allowed to incubate for approximately 10 minutes at room temperature, in the absence of light. A SpectraMax M5 Microplate Reader (Molecular Devices) is used to read the samples with excitation, auto cutoff and emission wavelengths set to 488 nm, 515 nm, and 525 nm respectively. Total RNA and free RNA are determined from the appropriate standard curves.
Encapsulation efficiency is calculated as (Total RNA-Free RNA)/Total RNA. The same procedure may be used for determining the encapsulation efficiency of a DNA-based cargo component. In a fluorescence-based assay, for single-strand DNA Oligreen Dye may be used, and for double-strand DNA, Picogreen Dye. Alternatively, the total RNA concentration can be determined by a reverse-phase ion-pairing (RP-IP) HPLC method. Triton X-100 is used to disrupt the LNPs, releasing the RNA. The RNA is then separated from the lipid components chromatographically by RP-IP HPLC and quantified against a standard curve using UV absorbance at 260 nm.

The mark [3] stands for this setting: sg:mRNA 1:1.3, N/P about 6, 50/9/38/3, Table 2, Experiment 1.
Setting [4] is: sg:mRNA 1:1.3, N/P about 6, amine lipid/DSPC/cholesterol/PEG-2k-DMG 50/9/38/3, Table 2, Experiment 1.
[5] abbreviates: sg:mRNA 1:1, N/P about 6, 50/9/38/3, Table 2, Experiments 2-20.
[6] abbreviates: sg:mRNA 1:1, N/P about 6, amine lipid/DSPC/cholesterol/PEG-2k-DMG 50/9/38/3, Table 2, Experiments 2-20.

As to `CCCCC/C=C\C/C=C\CCCCCCCC(=O)OCC(COC(=O)CCC(OCCCCCCCC)OCCCCCCCC)COC(=O)OCCCN(C)C` (stereo not drawn) [Compound 2, 3-((4,4-bis(octyloxy)butanoyl)oxy)-2-((((3-(dimethylamino)propoxy)carbonyl)oxy)methyl)propyl (9Z,12Z)-octadeca-9,12-dienoate], in data set [1] (setting [3]), the “Number mean (nm)” value is listed as 59.17 nm, the PDI is given as 0.046 and the “Z-avg (nm)” value was found to be 75.64 nm. Moreover, in the data set on Transthyretin (TTR), the “Serum TTR % TSS” value was found to be 90% and the “Serum TTR” value amounted to 1114 µg/mL. The “Encapsulation (%)” value in data set [2] (setting [4]) is reported as 96%.

`CCCCC/C=C\C/C=C\CCCCCCCC(=O)OCC(COC(=O)CCC(OCCCCCCCC)OCCCCCCCC)COC(=O)OCCCN1CCCC1` (stereo not drawn) [Compound 3, 3-((4,4-bis(octyloxy)butanoyl)oxy)-2-((((3-(pyrrolidin-1-yl)propoxy)carbonyl)oxy)methyl)propyl (9Z,12Z)-octadeca-9,12-dienoate]: in data set [1] (setting [3]), the “Number mean (nm)” value amounted to 61.67 nm, the PDI is 0.079 and the “Z-avg (nm)” value worked out at 86.16 nm. Also, in the data set with Transthyretin (TTR), the “Serum TTR % TSS” value came to 105% and the “Serum TTR” value is 1297 µg/mL. Moreover, in data set [2] (setting [4]), the “Encapsulation (%)” value was 91%.

`CCCCC/C=C\C/C=C\CCCCCCCC(=O)OCC(COC(=O)CCC(OCCCCCCCC)OCCCCCCCC)COC(=O)OCCCN(C)CCN(C)C` (stereo not drawn) [Compound 4, 13-(((4,4-bis(octyloxy)butanoyl)oxy)methyl)-2,5-dimethyl-10-oxo-9,11-dioxa-2,5-diazatetradecan-14-yl (9Z,12Z)-octadeca-9,12-dienoate]: in data set [1] (setting [3]), the “Number mean (nm)” value is on record as 44.92 nm, the PDI is given as 0.129 and the “Z-avg (nm)” value was 72.11 nm. In the data set on Transthyretin (TTR), the “Serum TTR % TSS” value amounted to 109% and the “Serum TTR” value stood at 1347 µg/mL. Further, the “Encapsulation (%)” value in data set [2] (setting [4]) worked out at 100%.

Turning to `CCCCC/C=C\C/C=C\CCCCCCCC(=O)OCC(COC(=O)CCC(OCCCCCCCC)OCCCCCCCC)COC(=O)OCC1CCCN(CC)C1` (stereo not drawn) [Compound 5, 3-((4,4-bis(octyloxy)butanoyl)oxy)-2-(((((1-ethylpiperidin-3-yl)methoxy)carbonyl)oxy)methyl)propyl (9Z,12Z)-octadeca-9,12-dienoate], in data set [1] (setting [3]), the “Number mean (nm)” value stood at 50.89 nm, the PDI amounted to 0.059 and the “Z-avg (nm)” value is on record as 66.28 nm. Further, in the data set on Transthyretin (TTR), the “Serum TTR % TSS” value worked out at 60% and the “Serum TTR” value came to 737 µg/mL. Besides, the “Encapsulation (%)” value in data set [2] (setting [4]) was determined as 98%.

As for `CCCCC/C=C\C/C=C\CCCCCCCC(=O)OCC(COC(=O)CCC(OCCCCCCCC)OCCCCCCCC)COC(=O)NCCCN(C)C` (stereo not drawn) [Compound 6, 3-((4,4-bis(octyloxy)butanoyl)oxy)-2-((((3-(dimethylamino)propyl)carbamoyl)oxy)methyl)propyl (9Z,12Z)-octadeca-9,12-dienoate], in data set [1] (setting [3]), the “Number mean (nm)” value turned out to be 41.82 nm, the PDI was 0.066 and the “Z-avg (nm)” value was found to be 56.86 nm. In addition, in the data set on Transthyretin (TTR), the “Serum TTR % TSS” value is reported as 90% and the “Serum TTR” value worked out at 1107 µg/mL. Further, the “Encapsulation (%)” value in data set [2] (setting [4]) amounted to 100%.

In the case of `CCCCC/C=C\C/C=C\CCCCCCCC(=O)OCC(COC(=O)CCC(OCCCCCCCC)OCCCCCCCC)COC(=O)NCCCN(CC)CC` (stereo not drawn) [Compound 7, 3-((4,4-bis(octyloxy)butanoyl)oxy)-2-((((3-(diethylamino)propyl)carbamoyl)oxy)methyl)propyl (9Z,12Z)-octadeca-9,12-dienoate], in data set [1] (setting [5]), the “Number mean (nm)” value is on record as 43.91 nm, the PDI was found to be 0.126 and the “Z-avg (nm)” value is given as 67.61 nm. Further, in the data set on Transthyretin (TTR), the “Serum TTR % TSS” value is reported as 104% and the “Serum TTR” value stood at 940 µg/mL. The “Encapsulation (%)” value in data set [2] (setting [6]) is reported as 99%.

With `CCCCC/C=C\C/C=C\CCCCCCCC(=O)OCC(COC(=O)CCC(OCCCCCCCC)OCCCCCCCC)COC(=O)NCCCN1CCCC1` (stereo not drawn) [Compound 8, 3-((4,4-bis(octyloxy)butanoyl)oxy)-2-((((3-(pyrrolidin-1-yl)propyl)carbamoyl)oxy)methyl)propyl (9Z,12Z)-octadeca-9,12-dienoate], in data set [1] (setting [5]), the “Number mean (nm)” value came to 37.17 nm, the PDI came out at 0.093 and the “Z-avg (nm)” value amounted to 53.88 nm. Moreover, in the data set on Transthyretin (TTR), the “Serum TTR % TSS” value amounted to 106% and the “Serum TTR” value is 962 µg/mL. Moreover, the “Encapsulation (%)” value in data set [2] (setting [6]) came to 100%.

`CCCCC/C=C\C/C=C\CCCCCCCC(=O)OCC(COC(=O)CCC(OCCCCCCCC)OCCCCCCCC)COC(=O)OCCN(CC)CC` (stereo not drawn) [Compound 9, 3-((4,4-bis(octyloxy)butanoyl)oxy)-2-((((2-(diethylamino)ethoxy)carbonyl)oxy)methyl)propyl (9Z,12Z)-octadeca-9,12-dienoate]: in data set [1] (setting [5]), the “Number mean (nm)” value is recorded as 45.11 nm, the PDI stood at 0.058 and the “Z-avg (nm)” value is 62.99 nm. In addition, in the data set with Transthyretin (TTR), the “Serum TTR % TSS” value was 100% and the “Serum TTR” value was 865 µg/mL. For the same molecule, the “Encapsulation (%)” value in data set [2] (setting [6]) stood at 89%.

Turning to `CCCCC/C=C\C/C=C\CCCCCCCC(=O)OCC(COC(=O)CCC(OCCCCCCCC)OCCCCCCCC)COC(=O)OCCN1CCCC1` (stereo not drawn) [Compound 10, 3-((4,4-bis(octyloxy)butanoyl)oxy)-2-((((2-(pyrrolidin-1-yl)ethoxy)carbonyl)oxy)methyl)propyl (9Z,12Z)-octadeca-9,12-dienoate], in data set [1] (setting [5]), the “Number mean (nm)” value came out at 39.12 nm, the PDI is listed as 0.086 and the “Z-avg (nm)” value worked out at 57.21 nm. In the data set with Transthyretin (TTR), the “Serum TTR % TSS” value was determined as 96% and the “Serum TTR” value stood at 871 µg/mL. Moreover, in data set [2] (setting [6]), the “Encapsulation (%)” value was 90%.

As to `CCCCC/C=C\C/C=C\CCCCCCCC(=O)OCC(COC(=O)CCC(OCCCCCCCC)OCCCCCCCC)COC(=O)OCCCCN(CC)CC` (stereo not drawn) [Compound 11, 3-((4,4-bis(octyloxy)butanoyl)oxy)-2-((((4-(diethylamino)butoxy)carbonyl)oxy)methyl)propyl (9Z,12Z)-octadeca-9,12-dienoate], in data set [1] (setting [5]), the “Number mean (nm)” value is on record as 68.35 nm, the PDI is 0.022 and the “Z-avg (nm)” value was determined as 85.35 nm. In the data set with Transthyretin (TTR), the “Serum TTR % TSS” value is listed as 78% and the “Serum TTR” value came out at 706 µg/mL. Moreover, in data set [2] (setting [6]), the “Encapsulation (%)” value was 97%.

As for `CCCCC/C=C\C/C=C\CCCCCCCC(=O)OCC(COC(=O)CCC(OCCCCCCCC)OCCCCCCCC)COC(=O)OCCCCN1CCCC1` (stereo not drawn) [Compound 13, 3-((4,4-bis(octyloxy)butanoyl)oxy)-2-((((4-(pyrrolidin-1-yl)butoxy)carbonyl)oxy)methyl)propyl (9Z,12Z)-octadeca-9,12-dienoate], in data set [1] (setting [5]), the “Number mean (nm)” value is 74.6 nm, the PDI is recorded as 0.013 and the “Z-avg (nm)” value is 91.12 nm. For the same molecule, in the data set with Transthyretin (TTR), the “Serum TTR % TSS” value is on record as 93% and the “Serum TTR” value amounted to 837 µg/mL. Also, the “Encapsulation (%)” value in data set [2] (setting [6]) is listed as 97%.
